Experimental data from PubChem BioAssay AID1195 (EPA DSSTox, 2008).

Tested on: human maximum recommended daily dose, FDA database
Assay: DSSTox (FDAMDD) FDA Maximum (Recommended) Daily Dose Database
Conditions: stronger effect = lower value
Procedure, shortened: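 MRDD values come from clinical trials with daily oral dosing, usually for 3–12 months, for the average adult, in mg/day converted to mg/kg-bw/day assuming 60 kg. Antineoplastic mg/m2 doses are divided by 37. Activity score maps log10(1/MRDD mmol) onto 1–100.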

[1] = TherapeuticCategory: antineoplastic
[2] = TherapeuticCategory: antiarrhythmic
[3] = TherapeuticCategory: antidepressant
[4] = TherapeuticCategory: analgesic, anti inflammatory
[5] = TherapeuticCategory: antibacterial
[6] = TherapeuticCategory: diagnostic aid
[7] = TherapeuticCategory: anticholinergic
[8] = TherapeuticCategory: narcotic analgesic
[9] = TherapeuticCategory: antihypertensive
[10] = TherapeuticCategory: anxiolytic

CO[C@H](C(=O)[C@@H](O)[C@@H](C)O)C1Cc2cc3cc(O[C@H]4C[C@@H](O[C@H]5C[C@@H](O)[C@H](O)[C@@H](C)O5)[C@@H](O)[C@@H](C)O4)c(C)c(O)c3c(O)c2C(=O)[C@H]1O[C@H]1C[C@@H](O[C@H]2C[C@@H](O[C@H]3C[C@](C)(O)[C@H](O)[C@@H](C)O3)[C@H](O)[C@@H](C)O2)[C@H](O)[C@@H](C)O1 (stereo not given in full)
maximum recommended daily dose (mmol/kg-bw/day) [1]: 2.76e-05

CCN(CC)CCCN(c1ccccc1)C1Cc2ccccc2C1
maximum recommended daily dose (mmol/kg-bw/day) [2]: 0.0155

CC(CC1c2ccccc2CCc2ccccc21)CN(C)C (stereo not given)
maximum recommended daily dose (mmol/kg-bw/day) [3]: 0.00852

Clc1ccc2c(c1)C(N1CCNCC1)=Nc1ccccc1O2
maximum recommended daily dose (mmol/kg-bw/day) [3]: 0.0319

CC(C(=O)O)c1ccc2oc(-c3ccc(Cl)cc3)nc2c1 (stereo not given)
maximum recommended daily dose (mmol/kg-bw/day) [4]: 0.0331

CCN(CC)CCOc1ccc(/C(=C(\Cl)c2ccccc2)c2ccccc2)cc1
maximum recommended daily dose (mmol/kg-bw/day) (TherapeuticCategory: gonad stimulating): 0.00411

CN(C)CCN(Cc1cccs1)c1ccccn1
maximum recommended daily dose (mmol/kg-bw/day) (TherapeuticCategory: antihistaminic): 0.0255

O=S(O)CNc1ccc(S(=O)(=O)c2ccc(NCS(=O)O)cc2)cc1
maximum recommended daily dose (mmol/kg-bw/day) [5]: 0.0111

Cc1cc(CC(=O)O)n(C)c1C(=O)c1ccc(Cl)cc1
maximum recommended daily dose (mmol/kg-bw/day) [4]: 0.0343

CCC(COC(=O)c1cc(OC)c(OC)c(OC)c1)(c1ccccc1)N(C)C (stereo not given)
maximum recommended daily dose (mmol/kg-bw/day) (TherapeuticCategory: antispasmodic): 0.0258

CO/N=C(/C(=O)N[C@@H]1C(=O)N2C(C(=O)OC(C)OC(=O)C(C)(C)OC)=C(COC(N)=O)CS[C@H]12)c1ccco1 (stereo not given in full)
maximum recommended daily dose (mmol/kg-bw/day) [5]: 0.0294

NC(=O)c1cnccn1
maximum recommended daily dose (mmol/kg-bw/day) [5]: 0.244

COc1ccc2nc(S(=O)Cc3ncc(C)c(OC)c3C)[nH]c2c1 (stereo not given)
maximum recommended daily dose (mmol/kg-bw/day) (TherapeuticCategory: antiulcerative): 0.00579

CCCC(CCC)C(=O)O
maximum recommended daily dose (mmol/kg-bw/day) (TherapeuticCategory: anticonvulsant, antiepileptic): 0.289

C[C@@H]1C[C@H]2[C@@H]3CCC4=CC(=O)C=C[C@]4(C)[C@@]3(F)[C@@H](O)C[C@]2(C)[C@@]1(O)C(=O)CO
maximum recommended daily dose (mmol/kg-bw/day) (TherapeuticCategory: glucocorticoid, anti inflammatory): 0.000382

CC(C)(C)NCC(O)COc1cccc2c1CCCC2=O (stereo not given)
maximum recommended daily dose (mmol/kg-bw/day) (TherapeuticCategory: antiglaucoma): 0.000858

CO[C@H]1[C@@H](O)[C@H](N)[C@@H](O[C@H]2O[C@H]([C@H](C)N)CC[C@H]2N)[C@H](O)[C@@H]1N(C)C(=O)CN
maximum recommended daily dose (mmol/kg-bw/day) [5]: 0.0164

CC(C(=O)O)c1ccc(N2CC=CC2)c(Cl)c1 (stereo not given)
maximum recommended daily dose (mmol/kg-bw/day) (TherapeuticCategory: anti inflammatory): 0.0528

CC(=O)Nc1c(I)c(NC(C)=O)c(I)c(C(=O)O)c1I
maximum recommended daily dose (mmol/kg-bw/day) [6]: 0.761

CNCCC(Oc1ccc(C(F)(F)F)cc1)c1ccccc1 (stereo not given)
maximum recommended daily dose (mmol/kg-bw/day) [3]: 0.0043

CCN(CCO)CCn1c(Cc2ccccc2)nc2c1c(=O)n(C)c(=O)n2C
maximum recommended daily dose (mmol/kg-bw/day) (TherapeuticCategory: bronchodilator): 0.0778

CC[N+](C)(CC)CCOC(=O)C1c2ccccc2Oc2ccccc21
maximum recommended daily dose (mmol/kg-bw/day) [7]: 0.0159

C[C@]12CC[C@H]3[C@@H](CC[C@@]45O[C@@H]4C(O)=C(C#N)C[C@]35C)[C@@H]1CC[C@@H]2O
maximum recommended daily dose (mmol/kg-bw/day) (TherapeuticCategory: adrenocortical suppressant, treatment of breast cancer): 0.0243

NC[C@@H]1O[C@H](O[C@H]2[C@@H](O)[C@H](O[C@@H]3[C@@H](O)[C@H](N)C[C@H](N)[C@H]3O[C@H]3O[C@H](CO)[C@@H](O)[C@H](O)[C@H]3N)O[C@@H]2CO)[C@H](N)[C@@H](O)[C@@H]1O
maximum recommended daily dose (mmol/kg-bw/day) (TherapeuticCategory: antibacterial, antiamebic): 0.0569

CCNNC(=O)[C@@H]1[C@H](c2cc(OC)c(OC)c(OC)c2)c2cc3c(cc2[C@H](O)[C@H]1CO)OCO3
maximum recommended daily dose (mmol/kg-bw/day) [1]: 0.00702

CC(C)c1ccc2oc3nc(N)c(C(=O)O)cc3c(=O)c2c1
maximum recommended daily dose (mmol/kg-bw/day) (TherapeuticCategory: antiallergic, antiasthmatic): 0.00838

CCOC(=O)C1(c2ccccc2)CCN(C)CC1
maximum recommended daily dose (mmol/kg-bw/day) [8]: 0.0606

C[C@@H]1C[C@H]2[C@@H]3CCC4=CC(=O)C=C[C@]4(C)[C@@]3(Cl)[C@@H](O)C[C@]2(C)[C@@]1(OC(=O)c1ccco1)C(=O)CCl
maximum recommended daily dose (mmol/kg-bw/day) (TherapeuticCategory: topical anti inflammatory): 2.88e-05

CCCCC1=NC2(CCCC2)C(=O)N1Cc1ccc(-c2ccccc2-c2nn[nH]n2)cc1
maximum recommended daily dose (mmol/kg-bw/day) [9]: 0.0117

COc1cc(C)c(/C=C/C(C)=C/C=C/C(C)=C/C(=O)O)c(C)c1C
maximum recommended daily dose (mmol/kg-bw/day) (TherapeuticCategory: antipsoriatic): 0.00383

CCCC(=O)Nc1c(I)cc(I)c(CC(CC)C(=O)O)c1I (stereo not given)
maximum recommended daily dose (mmol/kg-bw/day) [6]: 0.0754

COC(=O)[C@H](c1ccccc1Cl)N1CCc2sccc2C1
maximum recommended daily dose (mmol/kg-bw/day) (TherapeuticCategory: antithrombotic): 0.00388

c1ccc(CC2=NCCN2)cc1
maximum recommended daily dose (mmol/kg-bw/day) (TherapeuticCategory: antiadrenergic): 0.0125

C[C@@H]1C/C=C/C=C/C=C/C=C/[C@H](O[C@@H]2O[C@H](C)[C@@H](O)[C@H](N)[C@@H]2O)C[C@@H]2O[C@](O)(C[C@@H](O)C[C@H]3O[C@@H]3/C=C/C(=O)O1)C[C@H](O)[C@H]2C(=O)O
maximum recommended daily dose (mmol/kg-bw/day) [5]: 0.000413

CC(C)(C)c1cc(O)ccc1O
maximum recommended daily dose (mmol/kg-bw/day) (TherapeuticCategory: antioxidant): 0.0012

CN1[C@@H]2CC[C@H]1CC(OC(=O)C(O)c1ccccc1)C2 (stereo not given in full)
maximum recommended daily dose (mmol/kg-bw/day) [7]: 0.0018

CN(C(=O)C(Cl)Cl)c1ccc(O)cc1
maximum recommended daily dose (mmol/kg-bw/day) (TherapeuticCategory: antiamebic): 0.107

COc1ccc(C(=O)Nc2ccccc2CCC2CCCCN2C)cc1 (stereo not given)
maximum recommended daily dose (mmol/kg-bw/day) [2]: 0.00945

CC(=O)O[C@]1(C(C)=O)CC[C@H]2[C@@H]3C=C(Cl)C4=CC(=O)[C@@H]5C[C@@H]5[C@]4(C)[C@H]3CC[C@@]21C
maximum recommended daily dose (mmol/kg-bw/day) (TherapeuticCategory: antiandrogen): 0.012

C[C@]12CCC(=O)C=C1CC[C@H]1[C@@H]3CC[C@](O)(C(=O)CO)[C@@]3(C)C[C@H](O)[C@@]12F
maximum recommended daily dose (mmol/kg-bw/day) (TherapeuticCategory: mineralcorticoid): 4.39e-06

CC[C@H](C)C(=O)O[C@H]1C[C@H](O)C=C2C=C[C@H](C)[C@H](CC[C@@H](O)C[C@@H](O)CC(=O)O)[C@H]21
maximum recommended daily dose (mmol/kg-bw/day) (TherapeuticCategory: antihyperlipoproteinemic): 0.00157

CN1CC[C@]23c4c5ccc(O)c4O[C@H]2[C@@H](O)C=C[C@H]3[C@H]1C5
maximum recommended daily dose (mmol/kg-bw/day) [8]: 0.00585

CN(C)CCCN1c2ccccc2Sc2ccc(Cl)cc21
maximum recommended daily dose (mmol/kg-bw/day) (TherapeuticCategory: antiemetic, antipsychotic): 0.0524

CC(=O)Nc1ccc(OC(=O)c2ccccc2OC(C)=O)cc1
maximum recommended daily dose (mmol/kg-bw/day) (TherapeuticCategory: analgesic, antipyretic, anti inflammatory): 0.425

CCCCCCCCCC(=O)O[C@H]1CC[C@H]2[C@@H]3CCC4=CC(=O)CC[C@@H]4[C@H]3CC[C@]12C
maximum recommended daily dose (mmol/kg-bw/day) (TherapeuticCategory: anabolic): 0.00777

N[C@@H](Cc1c[nH]c2ccccc12)C(=O)O
maximum recommended daily dose (mmol/kg-bw/day) (TherapeuticCategory: antidepressant, nutrient): 0.49

CCC(=O)O[C@@](Cc1ccccc1)(c1ccccc1)[C@@H](C)CN(C)C
maximum recommended daily dose (mmol/kg-bw/day) (TherapeuticCategory: antitussive): 0.00492

C[C@@H]1CN2CC(=O)Nc3ccc(Cl)cc3[C@]2(c2ccccc2)O1
maximum recommended daily dose (mmol/kg-bw/day) [10]: 0.00304

C[C@]12CCC(=O)C=C1CC[C@@H]1[C@@H]2C(=O)C[C@@]2(C)[C@H]1CC[C@]2(O)C(=O)CO
maximum recommended daily dose (mmol/kg-bw/day) (TherapeuticCategory: glucocorticoid): 0.0139

CCC(c1ccc2cc(OC)ccc2c1)C(C)(C)C(=O)O (stereo not given)
maximum recommended daily dose (mmol/kg-bw/day) (TherapeuticCategory: estrogen): 0.000524

CC(C[N+](C)(C)C)OC(N)=O (stereo not given)
maximum recommended daily dose (mmol/kg-bw/day) (TherapeuticCategory: cholinergic): 0.0169

CCC1C(C)=NN=C(c2ccc(OC)c(OC)c2)c2cc(OC)c(OC)cc21 (stereo not given)
maximum recommended daily dose (mmol/kg-bw/day) [10]: 0.00654

CCC(=O)OC(OP(=O)(CCCCc1ccccc1)CC(=O)N1C[C@H](C2CCCCC2)C[C@H]1C(=O)O)C(C)C (stereo not given in full)
maximum recommended daily dose (mmol/kg-bw/day) [9]: 0.00236

OC[C@@H](O)[C@@H](O)[C@H](O)[C@H](O)CO
maximum recommended daily dose (mmol/kg-bw/day) (TherapeuticCategory: diuretic, diagnostic aid): 5.48

CN=C(NC)NCc1ccccc1
maximum recommended daily dose (mmol/kg-bw/day) [9]: 0.0188

CC1(C)N=C(N)N=C(N)N1c1ccc(Cl)cc1
maximum recommended daily dose (mmol/kg-bw/day) (TherapeuticCategory: antimalarial): 0.00132

N[C@@H]1C[C@H]1c1ccccc1
maximum recommended daily dose (mmol/kg-bw/day) [3]: 0.00751

O=C(Cn1cnnn1)N[C@@H]1C(=O)N2C(C(=O)O)=C(CSc3nncs3)CS[C@H]12
maximum recommended daily dose (mmol/kg-bw/day) [5]: 0.151

O=C1CN2CCOC2(c2ccccc2Cl)c2cc(Cl)ccc2N1 (stereo not given)
maximum recommended daily dose (mmol/kg-bw/day) [10]: 0.000573

CN(C)c1ccc2nc3ccc(=[N+](C)C)cc-3sc2c1
maximum recommended daily dose (mmol/kg-bw/day) (TherapeuticCategory: antimethemoglobinemic): 0.0203
